{
  "source": "patent US7615361B2",
  "about": "“Toxicity screening methods” (Ceetox, Inc., priority 2006, dated 2009)",
  "key": {"[1]": {"system": "H4IIE cells", "test": "Predicted Ctox from Tox-Panel", "format": "cell-based, rat", "details": "24 HR, estimated sustained plasma concentration where toxicity would be expected in vivo", "method": "Once all data for a given cluster of assays are received, the data are analyzed to obtain a detailed profile of the compound's toxicity. For example, most conveniently, the data are collated over a dose response range on a single graph. In such an embodiment, the measurement evaluated for each parameter (i.e., each indicator of cell health) at any given concentration is plotted as a percentage of a control measurement obtained in the absence of the compound. However, it should be noted that the data need not be plotted on a single graph, so long as all the parameters are analyzed collectively to yield detailed information of the effects of the concentration of the compound on the different parameters to yield an overall toxicity profile. As set forth below, this overall toxicity profile will facilitate a determination of a plasma concentration Ctox that is predicted to be toxic in vivo. Ctox represents an estimate of the sustained plasma concentration in vivo that would result in toxicity, such as hepatotoxicity or hematopoietic toxicity.\nStudies such as these indicate that a preferred concentration for setting Ctox is the highest concentration at which there is no observed effect on any of the indicators being measured in the cluster analysis, especially a 24-hour cluster analysis. […] It will be apparent that 24 hour assays are more time-effective, and consequently, the 24 hour NOEL/Ctox represents a preferred data point to select as Ctox in a CATS assay. It will also be apparent that, with further time studies, it may be possible to select an equally suitable Ctox at other CATS assay time points (e.g., between 24 and 72 hours, or less than 24 hours).\nIn certain embodiments, the predicting comprises performing concentration response analyses of measurements from at least three separate assays that are employed in the cluster analysis. For example, in the cell health cluster, such predicting will involve monitoring the concentration response effect of the compound on a first health indicator which monitors cellular replication, a second cell health indicator which monitors mitochondrial function, and a third cell health indicator which monitors membrane integrity. Of course, it is understood that fourth, fifth, sixth or more cell health indicators also may be employed. From these concentration response analyses, the highest concentration of the chemical compound at which a measurable toxic effect of the chemical compound is not observable, i.e. NOEL, is determined and the Ctox is identified as the concentration that correlates to the NOEL. In choosing the concentrations of the compound for analysis, one of skill in the art should devise a dose response regimen which is selected to provide an indication of cell health at concentrations of at least two concentration values higher than the Ctox concentration.\nThe Ctox (H4IIE) value was developed using 24 hr in vitro toxicity data and was validated by retrospectively evaluating compounds across different classes of drugs in 14-day rat studies in which compounds were administered on a daily basis and pharmacokinetic data was available. […] Thus, Ctox values are only determined for the 24 hr in vitro results. The 6 hr toxicity analyses are typically not performed but are beneficial for interpretation of results when compound toxicity is high (e.g., Ctox≦20 μM)."}, "[2]": {"system": "rat cardiomyocytes", "test": "Membrane lipid peroxidation (8-isoprostane ELISA)", "format": "cell-based", "details": "rat, 24 h", "method": "(§1) One test compound (Compound A) was received as dry powder and evaluated for potential cytotoxicity in a battery of in vitro assays. The compound was tested using both rat cardiomyocytes (CM) from rat neonates and a rat hepatoma (H4IIE) cell line. […] Camptothecin and rotenone were included as positive control compounds. The cell supernatant or the cells themselves were harvested for biochemical analysis. General cytotoxicity was evaluated by monitoring membrane integrity, mitochondrial function, cell proliferation, oxidative stress, and apoptosis. In addition, interaction with P-glycoprotein (PgP) on H4IIE cells and solubility of the test compound were also assessed. The means of each exposure group (n=3-7) were calculated for each assay performed. Intra assay variation well-to-well was typically less than 10% with plate to plate variation typically less than 20%."}, "[3]": {"system": "H4IIE cells", "test": "Membrane lipid peroxidation (8-isoprostane ELISA)", "format": "cell-based, rat", "details": "rat, 24 h", "method": "as §1\nExperimental Protocol: The test compound was provided and stored at 4° C. until needed. Dosing solutions were prepared in complete culture medium. The rat hepatoma (H4IIE) cell line was used as the test system."}, "[4]": {"system": "P-glycoprotein (PgP)", "test": "P-glycoprotein (PgP) binding: MTT with and without cyclosporin A", "format": "cell-based, rat", "details": "H4IIE 24 HR", "method": "Several antiviral drugs are substrates for P-glycoprotein transporter (PgP).\nP-glycoprotein (PgP) transport proteins are expressed in the bile canalicular membrane of normal liver. However, in neoplastic cells it is not uncommon to have expression of this transporter system in the plasma membrane. […] The existence of these transporters was evaluated with the Calcein-AM assay and with known substrates of PgP."}},
  "data": [
    {"compound": "CC(C)c1nc(CN(C)C(=O)N[C@H](C(=O)N[C@@H](Cc2ccccc2)C[C@H](O)[C@H](Cc2ccccc2)NC(=O)OCc2cncs2)C(C)C)cs1", "note": "[RITONAVIR, ritonavir]", "values": [
      {"measurement": "Predicted Ctox", "setting": "[1]", "result": 52, "unit": "µM"},
      {"measurement": "Membrane Lipid Peroxidation", "setting": "[2]", "result": 0},
      {"measurement": "Membrane Lipid Peroxidation", "setting": "[3]", "result": 0},
      {"measurement": "% Control (Compound + CSA)", "setting": "[4]; MTT, 50 μM, with cyclosporin A", "result": 81.5, "unit": "%"},
      {"measurement": "% Control (Compound)", "setting": "[4]; MTT, 50 μM, without CSA", "result": 100.6, "unit": "%"},
      {"measurement": "% Difference", "setting": "[4]; 1-20% low, 20-50% moderate, 50-100% high PgP interaction", "result": 19.0, "unit": "%"}
    ]}
  ]
}
